Measured values as given in patent US6603023B2 (priority 1996, dated 2003).
Read-outs that look alike come from different tables or passages of the source.

Tests used:
[1] = test system: CCRF-CEM/VM1; assay: cells; type: cell-based, human; settings: for IC50: XTT, read-out: IC50
In short: (§1)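 Growth was read by XTT/PMS reduction over 4 h at 37 °C after 72 h of compound treatment, with absorbance at 450 nm and 630 nm. CCRF-CEM, P388 and their resistant sublines, grown continuously with their selecting drugs, were cultured in duplicate at 5×10^4 cells/mL. The medium was RPMI-1640 with 10% FBS.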

[2] = test system: CCRF-CEM/VBL100; assay: cells; type: cell-based, human; settings: for fold resistance (cross-resistance) vs parent CCRF-CEM: CCRF-CEM/VBL100 MDR cells; for IC50: read-out: IC50
In short: as §1

[3] = test system: CCRF-CEM/Taxol®; assay: cells; type: cell-based, human; settings: Table 1A
In short: as §1

[4] = test system: CCRF-CEM human T-cell acute lymphoblastic leukemia cell line; assay: XTT cytotoxicity (cell growth inhibition), CCRF-CEM
In short: as §1

[5] = test system: SK-N-FI; assay: cells; type: cell-based, human
In short: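 Cellular protein content measured with sulforhodamine B after trichloroacetic acid fixation, read at 570 nm. Each duplicate run used six to seven concentrations, analysed by the median-effect method. Cells were cultured at 37 °C, 5% CO2 in RPMI 1640-10% FBS, and drug-resistant lines were maintained with their selecting agent.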

[6] = test system: Human CCRF-CEM Xenograft; assay: CCRF-CEM xenograft in scid mice; type: in vivo, CB-17 scid mice; settings: for mice died of drug toxicity: 7 mice
[7] = dose 0.7 i.p. QD d7-10,14,15, day 12
[8] = dose 0.7 i.p. QD d7-10,14,15, day 17
[9] = dose 0.7 i.p. QD d7-10,14,15, day 22
[10] = dose 1.0 i.p. QD d7-10,14,15, day 12
[11] = dose 1.0 i.p. QD d7-10,14,15, day 17
[12] = dose 1.0 i.p. QD d7-10,14,15, day 22

C/C(=C\c1csc(C)n1)[C@@H]1C[C@@H]2O[C@]2(C)CCC[C@H](C)[C@H](O)[C@@H](C)C(=O)C(C)(C)[C@@H](O)CC(=O)O1 [Epothilone B, epothilone B]
IC50 ([1]; Table 1): 2 nM
(D)/(A) IC50 ratio ([1]; Table 1A, CCRF-CEM/VM1 vs CCRF-CEM): 3.6
IC50 ([1]; Table 1A, 72 h): 1.3 nM
fold resistance (cross-resistance) vs parent CCRF-CEM [2]: 5 fold
fold resistance (cross-resistance) vs parent CCRF-CEM ([2]; listed as EpoB): 6.1 fold
Potency in parentheses relative to Epo B in CCRF-CEM cells ([2]; CCRF-CEM/VBL MDR cells): 1/6
Potency in square brackets relative to Epo B in CCRF-CEM/VBL MDR cells ([2]; CCRF-CEM/VBL MDR cells): 1
IC50 ([2]; Table 1, XTT): 3 nM
(B)/(A) IC50 ratio ([2]; Table 1A, CCRF-CEM/VBL100 vs CCRF-CEM): 6.1
IC50 ([2]; listed as Epo B): 2.1 nM
IC50 [2]: 2 nM
(C)/(A) IC50 ratio ([3]; CCRF-CEM/Taxol vs CCRF-CEM): 3.1
IC50 ([3]; XTT, 72 h, read-out: IC50): 1.1 nM
IC50 [4]: 0.35 nM
fold more potent than Epo A ([4]; CCRF-CEM cells): 6 fold
fold more potent than Taxol ([4]; CCRF-CEM cells): 10 fold
Rel. Value (potency relative to Epo B) ([4]; CCRF-CEM leukemic cells): 1
IC50 ([4]; Table 1, XTT): 0.4 nM
fold resistance vs parent SK-N-As ([5]; SK-N-F1 cells): 25 fold
folds of resistance (IC50 ratio vs parent cell line) ([5]; Table 1C, SK-N-FI vs SK-N-As): (25x)
IC50 ([5]; Table 1C, SRB, 72 h, read-out: IC50): 10 nM
mice died of drug toxicity ([6]; Epo B dose 0.7 i.p., day 19 & 20): ^4.Two mice died of drug toxicity on day 19 & 20.
mice died of drug toxicity ([6]; Epo B dose 1.0 i.p., day 18, 19 and 21): ^5.Three mice died of drug toxicity on day 18, 19 and 21.
Average weight change ([6]; dose 0.7 i.p. QD d7-10,14,15, day 7): −0.1
Average tumor volume (control = 1.00) [6, 7]: 0.53
Average weight change [6, 7]: −0.7
Average tumor volume (control = 1.00) [6, 8]: 0.48
Average weight change [6, 8]: −1.4
Average tumor volume (control = 1.00) [6, 9]: 0.46
Average weight change [6, 9]: +0.3
Average weight change ([6]; dose 1.0 i.p. QD d7-10,14,15, day 7): +0.1
Average tumor volume (control = 1.00) [6, 10]: 0.46
Average weight change [6, 10]: −1.5
Average tumor volume (control = 1.00) [6, 11]: 0.35
Average weight change [6, 11]: −2.4
Average tumor volume (control = 1.00) [6, 12]: 0.43
Average weight change [6, 12]: +0.1
